Patent US12642795B2, “MRGPRX2 antagonist for the treatment of pseudo allergic reactions” (The University of Hong Kong, priority 2021, dated 2026)

Legend:
human LAD2 MCs = assay: Monocyte chemoattractant protein-1 (MCP-1) measurement by ELISA; assay type: cell-based; conditions: 12.5 μM, 25 μM and 50 μM; compared to C48/80 control
Description: MCP-1 and PGD2 were measured from human LAD2 MCs via individual ELISA kits. Briefly, MCs were seeded at a density of 1.5×10^5 cells/80 μL/well in a 96 well plate in complete Stem-Pro 34 media. […] The cells were centrifuged to collect the supernatant and stored at −80° C. until analyzed. […] After 24 hours, cells were centrifuged to discard the media and lysed with 0.1M potassium phosphate via sonication. The supernatant of cell lysate was collected and stored at −80° C. until analyzed. MCP-1 (Abcam, Cambridge, UK) and PGD2 (Cayman Chemicals, MI, USA) were quantified by ELISA according to manufacturer instruction.

Human LAD-2 mast cells = assay: β-Hexosaminidase MCs degranulation assay; assay type: cell-based; conditions: LAD2, LAD-2 MCs, followed by EC90 concentration (10 μM) of C48/80
Description: Human LAD-2 mast cells were seeded at 2×10^4 cells/well/80 μL in a 96-well plate. A 10× stock of antagonist were prepared in HEPES buffer (HEPES (10 mM), NaCl (137 mM), KCl (2.7 mM), Na2HPO4·7H2O (0.4 mM), glucose (5.6 mM), CaCl2·2H2O (1.8 mM), MgSO4·7H2O (1.3 mM), bovine serum albumin (0.04%), pH 7.4). […] The plate was spun at 450×g for 5 minutes at room temperature, and 50 μL of supernatant was aliquoted to a new 96 well plate. The cells were lysed with 100 μL of 0.1% Triton X-100, and 50 μL of lysate was aliquoted to another 96 well plates. A 1.3 mg/ml solution of the substrate PNAG (4-Nitrophenyl N-acetyl-β-D-glucosaminide) was prepared in 0.1 M citric acid/sodium citrate buffer (pH 4.5, 24.087 g/L Sodium Citrate dihydrate, and 3.471 g/L Citric Acid). 50 μL of PNAG was added to each well of supernatant and lysate, and cells were incubated for 90 min at 37° C. (without CO2). The reaction was stopped by adding 50 μL of 0.4 M Glycine buffer. The extent of yellow color was measured at 405 nm using Victor 4× plate reader (PerkinElmer), and percentage MCs degranulation (β-hexosaminidase release) was calculated by using the formula; % MCs degranulation: […]

C57/BL/6N mice [1] = assay: In-vivo local anaphylaxis/pseudo allergic mice model (C48/80 induced); design: species or system mouse; conditions: 5 mg/kg intraperitoneally, vs C48/80 mice; for increase in paw thickness: 15 min after C48/80 (30 μg/ml) in paw; for Evans blue dye extravasation: 15 min after C48/80 (30 μg/ml)
Excerpt: Young adult male mice (C57/BL/6N aged 6-8 weeks old, n=6/group) were used to measure the local anaphylaxis activity by measuring Evans blue tissue extravasation in paw and ear tissue. The animal experiments were approved by the Committee on the Use of Live Animals in Teaching and Research (CULATR) (Animal ethical approval number CULATR 5125-19). Mice were anesthetized via intraperitoneal injection of ketamine and xylazine, and paw thickness was measure using a Vernier caliper. The antagonists (GE0117, GE1109, and GE1111) were injected at a dose of 5 mg/kg body weight via intraperitoneal injection followed by a tail vein injection of 50 μL 12.5% Evans blue in saline (irrespective of the bodyweight). After thirty minutes, C48/80 (10 μL of 30 μg/ml) was injected into one paw and ear, while saline was injected into the other paw and ear as a negative control. After fifteen minutes, the paw and ear tissue were photographed, and the paw thicknesses were measured again to calculate % increase in paw thickness. Mice were euthanized by cervical dislocation under anesthesia, and the collected paw and ear tissues were dried at 50° C. for 24 hours and weighed separately. Evans blue was extracted with formamide (500 μL/tissue) by incubating at 50° C. for 24 h. The supernatant was aliquoted into 96-well plates (200 μL/well, duplicate), and OD was measure at 595 nm using a Victor 4× plate reader (PerkinElmer). The paw edema/inflammation was measured as % increase in paw thickness=

MRGPRX2 = target: T1, MRGPRX2 (Homo sapiens, UniProt Q96LB1); assay: MRGPRX2 activation assay (PRESTO-Tango assay); assay type: cell-based; conditions: MRGPRX2-Tango transfected HTLA cells, followed by EC90 concentration (10 μM) of C48/80
T1 construct: expressed in transfected cells; host or cells: HTLA cells
T1 sequence (Q96LB1 1-330): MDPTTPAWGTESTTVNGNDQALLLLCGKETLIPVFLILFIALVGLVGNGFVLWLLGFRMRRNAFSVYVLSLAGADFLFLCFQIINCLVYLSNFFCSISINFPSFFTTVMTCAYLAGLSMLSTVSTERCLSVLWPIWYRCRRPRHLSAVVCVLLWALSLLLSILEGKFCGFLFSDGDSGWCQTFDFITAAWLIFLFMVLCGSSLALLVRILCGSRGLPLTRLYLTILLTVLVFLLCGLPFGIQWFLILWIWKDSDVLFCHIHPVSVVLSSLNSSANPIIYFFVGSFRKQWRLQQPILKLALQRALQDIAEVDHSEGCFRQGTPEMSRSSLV
Description: On day 1 of the experiment, HTLA cells were seeded at 1×10^6 cells per 100 mm cell culture dish for transfection. On the following day (day 2), HTLA cells were transfected with Tango MRGPRX2 DNA using the Lipofectamine transfection reagent (Thermo Fischer Scientific). On day 3, Tango MRGPRX2 transfected cells were transferred into 96-well white clear-bottom cell culture plates at a density of 2×10^4 cells/well/80 μL (PerkinElmer Life Science).

C57/BL/6N mice [2] = assay: In-vivo systemic anaphylaxis mice model (C48/80 induced); design: species or system mouse; conditions: 5 mg/kg intraperitoneally, C48/80 8 mg/kg intraperitoneally
Description: Animals (C57/BL/6N aged 6-8 weeks old, n=6-8/group) were transported to the procedure area the day before injections to minimize stress. The antagonists (GE0117, GE1109, or GE1111) or vehicle was injected intraperitoneally, and mice were kept in the cage for 30 minutes. After 30 minutes of saline (negative control), 8 mg/kg of C48/80 was injected intraperitoneally. The volume of intraperitoneal injection was 10 ml/kg body weight as per AAALAC guidelines. The injection site was swabbed with cotton soaked in 70% alcohol, and the mouse was placed in a separate cage as one mouse per cage. Body core temperature was measured before (basal) and after the injections with an IR non-contact thermometer for one hour. Also, mice were monitored for anaphylaxis symptoms/severity and scored from 0-5 for 1 h or until death following C48/80 injection, whichever was first. Briefly, the scoring system was followed as 0, no symptoms; 1, scratching and rubbing around the nose and head; 2, puffiness around the eyes and mouth, diarrhea, pilar erecti, reduced activity, and/or decreased activity with an increased respiratory rate; 3, wheezing, labored respiration, and cyanosis around the mouth and the tail; 4, no activity after prodding or tremor and convulsion; 5, death. The body core temperature and anaphylaxis score were plotted using Graph Pad Prism.

Human LAD-2 MCs = assay: Intracellular Ca2+ flux assay (Fluo-4 NW); assay type: cell-based; conditions: LAD2 MCs; for efficacy in Ca2+ flux reduction at 12.5 μM, 25 μM and 50 μM: ****P<0.0001 vs C48/80; for reduction of C48/80 induced Ca2+ flux: C48/80 EC90 concentration
Description: The intracellular Ca^2+ flux was measured in human LAD-2 MCs by using the Fluo-4 NW calcium assay kit and the protocol according to the manufacturer (Molecular Probe, Invitrogen, USA). Briefly, LAD-2 cells were plated in a 96-well black well plate (SPL Life Sciences) at a density of 1×10^5 cells/well/40 μL in assay buffer and incubated for 1 h at 37° C. incubators. After 1 h, 40 μL of the 2× dye loading solution and antagonist or buffer was added to the cells (10 μL of 10× stock). […] After one hour of incubation, a graded concentration of agonist or buffer was added to the cells (10 μL of 10× stock). The fluorescence was measured at an excitation wavelength of 494 nm and an emission wavelength of 516 nm using Victor 4× plate reader (PerkinElmer) for 150 seconds. The ΔF was calculated by […] and plotted by using Graph Pad Prism.

mice ear tissue MCs = assay: Histological analysis of ear tissue (H&E, Toluidine blue; in-vivo MCs degranulation); design: species or system mouse; conditions: 5 mg/kg intraperitoneally, vs C48/80 treated group
Description: The mice were anesthetized with ketamine/xylazine and were injected with antagonists (GE0117, GE1109, and GE1111) at a dose of 5 mg/kg body weight intraperitoneally. After 30 minutes, C48/80 (10 μL of 30 μg/ml) and saline (as negative control) were injected into the ear. Fifteen minutes later, the mice were sacrificed, and the injection site of the ear was excised, washed with PBS, and fixed with 10% buffered formalin for 24 h. After 24 hours, the ear tissue was dehydrated in a graded concentration of ethanol (30%, 50% & 70% ethanol every 24 hours) at 4° C. Further, the tissue was processed in an automated tissue processor (Leica ASP300) and embedded into paraffin using Embedding Centre (Leica EG1150). The paraffin-embedded tissue was sectioned at […] size using a fully automatic Microtome (Leica RM2265). The tissue sections were subjected to H&E staining using an automated slide Stainer (Leica ST5020) using standard staining protocol. After staining, the slides were dried under a fume hood and mounted with DPX. For the MCs detection, the sectioned ear tissue was subjected to Toluidine blue O staining according to the available online protocol (http://www.ihcworld.com/_protocols/special_stains/toluidine_blue.htm). Images were captured under 10× and 20× magnification using a Nikon Eclipse Ni-U, upright microscope, and Nikon DS-Ri2 microscopic camera (Nikon, Tokyo, Japan).

IC50 (Human LAD-2 mast cells) [µM] | IC50 (MRGPRX2) [µM] | Compound | inhibition of C48/80 induced MCP-1 release (human LAD2 MCs) | increase in paw thickness (C57/BL/6N mice [1]) | Evans blue dye extravasation (C57/BL/6N mice [1]) | C48/80 induced body temperature change at 35 minutes (C57/BL/6N mice [2]) | efficacy in Ca2+ flux reduction at 12.5 μM, 25 μM and 50 μM (Human LAD-2 MCs) | reduction of C48/80 induced Ca2+ flux (Human LAD-2 MCs) | percentage of degranulated MCs in ear tissue (mice ear tissue MCs) | C48/80 induced body temperature changes at 30 minutes (C57/BL/6N mice [2]) | systemic anaphylaxis symptoms (score 0-5) (C57/BL/6N mice [2]; 1 h)
20.8 | 9.79 | COC(=O)c1ccc2cc(-c3cc4c5c(cccc5c3)C(=O)N(C)C4=O)c(NC(N)=O)cc2c1 [GE0117] | significantly inhibits the release of MCP-1 at all the tested concentrations | significantly (***P<0.001) attenuated | significantly (***P<0.001) attenuated | significantly reversed the body temperature change | higher efficacy at all three concentrations | significant concentration-dependent reduction | – | – | –
18.2 | 8.91 | COC(=O)c1ccc2cc(-c3cc4c5c(cccc5c3)C(=O)N(C)C4=O)c(C(=O)OC)cc2c1 [GE0118] | – | – | – | – | – | significant concentration-dependent reduction | – | – | –
25.5 | 20.1 | COC(=O)c1cc2cc(NC(N)=O)ccc2cc1-c1cc2c3c(cccc3c1)C(=O)N(C)C2=O [GE0119] | – | – | – | – | – | significant concentration-dependent reduction | – | – | –
9.87 | 7.14 | COC(=O)c1cc2cc(NC(N)=O)ccc2cc1-c1ccc2c3c(cccc13)C(=O)C=C2 [GE1109] | significant activity only at 25 μM, and 50 μM | significant (*P<0.05) antagonizing activity | significant (*P<0.05) antagonizing activity | significantly reversed the body temperature change | higher efficacy at all three concentrations | significant concentration-dependent reduction | reduces the MCs degranulation | reversed the C48/80 induced body temperature changes | –
23.4 | 8.93 | COC(=O)c1ccc2cc(-c3cc4c5c(c(O)ccc5c3)C(C)C(C=O)=C4)c(C(=O)OC)cc2c1 (stereo not drawn) [GE1110] | – | – | – | – | higher efficacy at all three concentrations | significant concentration-dependent reduction | – | – | –
4.7 | 9.42 | COC(=O)c1cc2cc(NC(N)=O)ccc2cc1-c1cc2c3c(c(O)ccc3c1)C(C)C(C=O)=C2 (stereo not drawn) [GE1111] | significantly inhibits the release of MCP-1 at all the tested concentrations | significantly (***P<0.001) attenuated | significantly (***P<0.001) attenuated | significantly reversed the body temperature change | higher efficacy at all three concentrations | significant concentration-dependent reduction | reduces the MCs degranulation | reversed the C48/80 induced body temperature changes | rehabilitated the compound 48/80 induced hypothermia and severity of anaphylaxis symptoms

Compound | IC50 (Human LAD-2 mast cells) [µM] | IC50 (MRGPRX2) [µM] | inhibition of C48/80 induced MCP-1 release (human LAD2 MCs) | increase in paw thickness (C57/BL/6N mice [1]) | Evans blue dye extravasation (C57/BL/6N mice [1]) | C48/80 induced body temperature change at 35 minutes (C57/BL/6N mice [2]) | efficacy in Ca2+ flux reduction at 12.5 μM, 25 μM and 50 μM (Human LAD-2 MCs) | reduction of C48/80 induced Ca2+ flux (Human LAD-2 MCs) | percentage of degranulated MCs in ear tissue (mice ear tissue MCs) | C48/80 induced body temperature changes at 30 minutes (C57/BL/6N mice [2]) | systemic anaphylaxis symptoms (score 0-5) (C57/BL/6N mice [2]; 1 h)
O=c1c(-c2ccc(O)cc2)coc2cc(O)cc(O)c12 [genistein, reference compound] | 30.3 | 31.7 | – | significant (*P<0.05) antagonizing activity | significant (*P<0.05) antagonizing activity | significantly reversed the body temperature change | – | significant (**P<0.001) Ca^2+ flux reduction at 50 μM concentration only | – | – | –
